Assay results taken from US5256658A, “Angiotensin II inhibitors” (Ortho Pharmaceutical Corporation, priority 1993, dated 1993).

Assays:
[1] = tested on: angiotensin II receptor; experiment: Screening Potential Angiotensin II Receptor Antagonists in Salt-Depleted Normotensive Rats; assay type: in vivo, rat (Sprague-Dawley)
Experimental: 2. Test Procedure for Screening Potential Angiotensin II Receptor Antagonists in Salt-Depleted Normotensive Rats
Purpose: This test is designed to detect hypotensive effects of a compound after oral dosing in normotensive animals made renin-dependent by salt depletion.
Method: Male 350-450 g Sprague-Dawley rats are implanted with teflon microcannulae via the middle caudal artery under 20 mg/kg intravenous Brevital® anesthesia and permitted a 4-7 day surgical recovery period. Throughout recovery and testing animals are individually housed unrestrained in standard rat metabolism cages and receive continuous 0.5 ml/h intra-arterial 0.25N saline infusion through a spring-shielded swivelling tether connected to an infusion/blood pressure recording system to maintain arterial cannula patency. Animals are maintained on Low Sodium (0.03%) Purina Rat Chow #5881 throughout the study. After the recovery period animals are given oral 50 mg/kg furosemide (Lasix, Hoechst-Roussel Pharmaceutical) doses on two consecutive days to produce marked diuresis and plasma volume depletion that makes maintenance of normal blood pressure highly dependent on function of the renin-angiotensin-aldosteronesystem. Three hours after the second furosemide dose, rats are given test compound uniformly suspended in 1% methylcellulose (n=3/dose level) or 1 mL 1% methylcellulose vehicle (n=3) orally by gavage and blood pressure is continuously recorded for 24 h using a Buxco computerized data recording system. Compound-induced changes in blood pressure are compared to concurrent vehicle control blood pressures in order to detect drug effect.
Interpretation: Prior to salt depletion, normotensive rats typically show a plasma renin activity (PRA, ng angiotensin I/mL plasma/h, RIA) of 0.7. After the salt-depletion protocol PRA values taken 3 h after the furosemide dose have risen to about 7.4.
Compounds that decrease blood pressure 10 or more mmHg (MAP) compared to concurrent control after oral dosing are considered active in this test. Maximum possible response is about -35 mmHg. […]

[2] = biological target: T1, angiotensin II receptor (Oryctolagus cuniculus, UniProt P34976)
T1 sequence (P34976 1-359): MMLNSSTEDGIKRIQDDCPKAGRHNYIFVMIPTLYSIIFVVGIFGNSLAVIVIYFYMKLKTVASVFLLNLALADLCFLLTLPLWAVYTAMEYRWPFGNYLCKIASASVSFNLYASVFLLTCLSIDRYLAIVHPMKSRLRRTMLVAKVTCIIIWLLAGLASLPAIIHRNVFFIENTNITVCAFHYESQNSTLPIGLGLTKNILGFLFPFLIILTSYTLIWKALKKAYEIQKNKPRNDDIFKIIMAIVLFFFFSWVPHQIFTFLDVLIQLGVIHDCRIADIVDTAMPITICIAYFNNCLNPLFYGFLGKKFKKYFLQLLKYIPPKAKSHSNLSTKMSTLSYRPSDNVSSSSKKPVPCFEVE
Description: Inhibition of Angiotensin II Dose-Response in Rabbit Thoracic Aorta:
Purpose: To identify competitive receptor antagonists of an angiotensin II-1 activity, i.e., angiotensin II-induced vasoconstriction in in vitro aortic rings.
Procedure: 1.8 to 2.3 kg New Zealand white rabbits are sacrificed with an intravenous sodium pentobarbital overdose and the thoracic aorta gently dissected free from the aortic root to the level of the diaphragm, into ice cold Krebs bicarbonate buffer. The aorta is gently freed of clots and adventitia and cleanly cut with a scalpel into 5 mm segments. Each ring is suspended from a Gould isotonic force transducer in a tissue bath containing 15 mL oxygenated Krebs bicarbonate buffer regulated at 37° C. Initial tension is adjusted to 4.0 g and equilibrated over three 20-min wash periods to achieve a baseline tension of 3.0 g. Graded angiotensin II doses are given cumulatively to achieve a maximal contraction. Three 20-min washes are performed to remove the initial angiotensin II effect. […]
Analysis: Angiotensin II vasoconstrictor tension in grams is expressed as a percent of maximal contraction for the before and after test compound angiotensin II dose-responses. Angiotensin II ED50 and ED90 values are determined from the angiotensin II dose-response curves generated before and after test compound. […]

[3] = tested on: angiotensin II receptor; experiment: Oral activity in the spontaneously hypertensive rat, as determined in test procedure 2; assay type: in vivo

| Structure (SMILES) | blood pressure response ([1]; normotensive rats that have not been salt-depleted) | plasma renin activity (PRA) ([1]; salt-depleted rats after DuP-753 treatment, RIA) | blood pressure decrease (mean arterial pressure, MAP) ([1]; salt-depleted rats, typical response) | Kb [2] [nM] | maximum mean arterial pressure drop [3] [mm Hg] | oral activity [3] | duration ([3]; duration of blood pressure effect) [h] |
| --- | --- | --- | --- | --- | --- | --- | --- |
| CCCCc1nc(Cl)c(CO)n1Cc1ccc(-c2ccccc2-c2nn[nH]n2)cc1 [DuP-753] | does not change | about 41.4 ng angiotensin I/mL plasma/h | about 35 mmHg | – | – | – | – |
| C[C@@H]1CN(Cc2ccc(-c3ccccc3-c3nn[nH]n3)cc2)C[C@H](C)O1 [cis-2,6-Dimethyl-4-[4-(2'-tetrazolophenyl)phenylmethyl]morpholine] | – | – | – | 123 | 31 | good oral activity | 12 |
